Results taken from publication PMC12108418, “Broad-Spectrum Gramicidin S Derivatives with Potent Activity Against Multidrug-Resistant Gram-Negative ESKAPE Pathogens” (Antibiotics, 2025).
≈ marks a conversion by molar mass, not a printed value. Where two headings read alike, the source gives them in different places. Square brackets hold non-standard residues; d marks the D form. Peptide text beside a SMILES is read from it. Tle = CC(C)(C)[C@H](N)C(=O)O; Orn = NCCC[C@H](N)C(=O)O; Abu = CC[C@H](N)C(=O)O

Tests used:
[1] = system: Pseudomonas aeruginosa (ATCC 27853); assay type: cell-based
Description: (§1) The antibacterial efficacy of peptides was assessed using the broth microdilution method in accordance with Clinical and Laboratory Standards Institute (CLSI) guidelines (M07-A10, 2015 [33]). The minimum inhibitory concentrations (MICs) were determined against Escherichia coli (ATCC 25922), Klebsiella pneumoniae (ATCC 33495), Pseudomonas aeruginosa (ATCC 27853), Acinetobacter baumannii (ATCC 19606), and Staphylococcus aureus (ATCC 29213 and ATCC USA300). Bacterial suspensions were standardised to 5 × 10^4 colony-forming units (CFUs)/well in cation-adjusted Mueller–Hinton broth (CAMHB). Peptides were dissolved in 25% DMSO and serially diluted two-fold across 96-well plates, reaching final concentrations ranging from 256 to 0.125 µg/mL. The wells were inoculated, ensuring a final volume of 100 µL per well, with a DMSO concentration of 1% (v/v) to minimise solvent interference. […] Vancomycin was used as the positive control for S. aureus. Polymyxin B served as the positive control for Gram-negative bacteria. CAMHB with 1% (v/v) DMSO (without peptides) was used as the negative control. All experiments were performed in triplicate (n = 3). Bacterial isolates were stored in tryptone soy broth with 30% glycerol at −80 °C for long-term preservation.

[2] = system: Klebsiella pneumoniae (ATCC 33495); assay type: cell-based; conditions: ATCC 33495
Description: as §1

[3] = system: Escherichia coli (ATCC 25922); assay type: cell-based
Description: as §1

[4] = system: Acinetobacter baumannii (ATCC 19606); assay type: cell-based
Description: as §1

[5] = Analytical RP-HPLC retention time as measure of hydrophobicity; assay type: physicochemical; conditions: measure of global hydrophobicity, Phenomenex Kinetex 2.6 µm C18 (150 × 4.6 mm), 0.7 mL/min, ACN/TFA (100:0.0008) and water/TFA (100:0.001)
Description: Peptide purification was carried out via preparative RP-HPLC on an Agilent 1260 Infinity II system (Santa Clara, CA, USA) equipped with a 21.2 × 150 mm Agilent ZORBAX Eclipse Plus C18 column, operating at a flow rate of 25 mL/min. The mobile phase consisted of acetonitrile containing 0.0008% trifluoroacetic acid (v/v) as the organic phase and water with 0.001% TFA as the aqueous phase. […] Analytical HPLC analysis was performed on a Hewlett-Packard Series 1100 instrument using a Phenomenex (Torrance, CA, USA) Kinetex C18 column (150 mm × 4.6 mm, 2.6 µm particle size), under identical solvent conditions, to confirm purity.
HRMS of peptide 1. […] HRMS of peptide 2. […] HRMS of peptide 3. […] HRMS of peptide 4. […] HRMS of peptide 5. […] HRMS of peptide 6. […] HRMS of peptide 7. […] HRMS of peptide 8. […] HRMS of peptide 9. […] HRMS of peptide 10. […] HRMS of peptide 11. […] HRMS of peptide 12. […] HRMS of peptide 13. […] HRMS of peptide 14. […] HRMS of peptide 15. […] HRMS of peptide 16. […] HRMS of peptide 17. […] HRMS of peptide 18. […] HRMS of peptide 19.

[6] = broth microdilution in CAMHB, 5 × 10^4 CFU/well, 1% DMSO, 37 °C, 16–20 h, 256 to 0.125 µg/mL, triplicate (n = 3)

SMILES	MIC P. aeruginosa ATCC 27853 ([1]; ATCC 27853)	MIC K. pneumonia ATCC 33495 [2]	MIC E. coli ATCC 25922 ([3]; ATCC 25922)	MIC A. baumannii ATCC 19606 ([4]; ATCC 19606)	RP-HPLC retention time tR [5]	MIC E. coli ATCC 25922 [3, 6]	MIC A. baumannii ATCC 19606 [4, 6]	MIC P. aeruginosa ATCC 27853 [1, 6]
CC(C)C[C@@H]1NC(=O)[C@H](CCCN)NC(=O)[C@H](C(C)C)NC(=O)[C@@H]2CCCN2C(=O)[C@@H](Cc2ccccc2)NC(=O)[C@H](CC(C)C)NC(=O)[C@H](CCCN)NC(=O)[C@H](C(C)C)NC(=O)[C@@H]2CCCN2C(=O)[C@@H](Cc2ccccc2)NC1=O [GS, gramicidin S] (cyclo(V[Orn]L[dF]PV[Orn]L[dF]P))	128 µg/mL (≈ 112 µM)	128 µg/mL (≈ 112 µM)	32 µg/mL (≈ 28 µM)	8 µg/mL (≈ 7.01 µM)	–	–	–	–
CC(C)(C)[C@@H]1NC(=O)[C@H](CCCN)NC(=O)[C@H](C(C)(C)C)NC(=O)[C@@H]2CCCN2C(=O)[C@@H](Cc2ccccc2)NC(=O)[C@H](C(C)(C)C)NC(=O)[C@H](CCCN)NC(=O)[C@H](C(C)(C)C)NC(=O)[C@@H]2CCCN2C(=O)[C@@H](Cc2ccccc2)NC1=O [Peptide 1] (cyclo([Orn][Tle][dF]P[Tle][Orn][Tle][dF]P[Tle]))	64 µg/mL (≈ 54.7 µM)	128 µg/mL (≈ 109 µM)	32 µg/mL (≈ 27.4 µM)	4 µg/mL (≈ 3.42 µM)	19.90 min	–	–	–
CC(C)C[C@@H]1NC(=O)[C@H](CCCN)NC(=O)[C@H](C(C)C)NC(=O)[C@@H]2CCCN2C(=O)[C@@H](Cc2ccccc2)NC(=O)[C@H](CC(C)C)NC(=O)[C@H](CCCN)NC(=O)[C@H](C(C)C)NC(=O)[C@H](Cc2c[nH]c3ccccc23)NC(=O)[C@@H](Cc2ccccc2)NC1=O [Peptide 2] (cyclo(L[dF]PV[Orn]L[dF]WV[Orn]))	>256 µg/mL	>256 µg/mL	256 µg/mL (≈ 208 µM)	64 µg/mL (≈ 52 µM)	–	–	–	–
CC(C)C[C@@H]1NC(=O)[C@H](CCCN)NC(=O)[C@H](C(C)C)NC(=O)[C@@H]2CCCN2C(=O)[C@@H](Cc2ccccc2)NC(=O)[C@H](CC(C)C)NC(=O)[C@H](CCCN)NC(=O)[C@H](C(C)C)NC(=O)[C@H](Cc2c[nH]c3ccccc23)NC(=O)[C@@H](Cc2c[nH]c3ccccc23)NC1=O [Peptide 3] (cyclo(L[dF]PV[Orn]L[dW]WV[Orn]))	>256 µg/mL	>256 µg/mL	–	128 µg/mL (≈ 101 µM)	–	> 256 µg/mL	–	–
CC(C)C[C@@H]1NC(=O)[C@H](CCCN)NC(=O)[C@H](C(C)C)NC(=O)[C@H](Cc2c[nH]c3ccccc23)NC(=O)[C@@H](Cc2ccccc2)NC(=O)[C@H](CC(C)C)NC(=O)[C@H](CCCN)NC(=O)[C@H](C(C)C)NC(=O)[C@H](Cc2c[nH]c3ccccc23)NC(=O)[C@@H](Cc2ccccc2)NC1=O [Peptide 4] (cyclo(L[dF]WV[Orn]L[dF]WV[Orn]))	>256 µg/mL	>256 µg/mL	–	–	–	> 256 µg/mL	> 256 µg/mL	–
CC(C)C[C@@H]1NC(=O)[C@H](CCCN)NC(=O)[C@H](C(C)C)NC(=O)[C@H](Cc2c[nH]c3ccccc23)NC(=O)[C@@H](Cc2c[nH]c3ccccc23)NC(=O)[C@H](CC(C)C)NC(=O)[C@H](CCCN)NC(=O)[C@H](C(C)C)NC(=O)[C@H](Cc2c[nH]c3ccccc23)NC(=O)[C@@H](Cc2ccccc2)NC1=O [Peptide 5] (cyclo(L[dF]WV[Orn]L[dW]WV[Orn]))	>256 µg/mL	>256 µg/mL	–	–	–	> 256 µg/mL	> 256 µg/mL	–
CC(C)(C)[C@@H]1NC(=O)[C@H](CCCN)NC(=O)[C@H](C(C)(C)C)NC(=O)[C@@H]2CCCN2C(=O)[C@@H](Cc2ccccc2)NC(=O)[C@H](C(C)(C)C)NC(=O)[C@H](CCCN)NC(=O)[C@H](C(C)(C)C)NC(=O)[C@@H]2CCCN2C(=O)[C@@H](CCCNC(=N)N)NC1=O [Peptide 7] (cyclo([Orn][Tle][dF]P[Tle][Orn][Tle][dR]P[Tle]))	32 µg/mL (≈ 27.2 µM)	32 µg/mL (≈ 27.2 µM)	16 µg/mL (≈ 13.6 µM)	4 µg/mL (≈ 3.39 µM)	16.92 min	–	–	–
CC(C)C[C@@H]1NC(=O)[C@H](CCCN)NC(=O)[C@H](C(C)C)NC(=O)[C@@H]2CCCN2C(=O)[C@@H](Cc2ccccc2)NC(=O)[C@H](CC(C)C)NC(=O)[C@H](CCCN)NC(=O)[C@H](C(C)C)NC(=O)[C@H](Cc2c[nH]c3ccccc23)NC(=O)[C@@H](CCCNC(=N)N)NC1=O [Peptide 8] (cyclo(L[dF]PV[Orn]L[dR]WV[Orn]))	32 µg/mL (≈ 25.8 µM)	16 µg/mL (≈ 12.9 µM)	–	8 µg/mL (≈ 6.45 µM)	–	8 µg/mL (≈ 6.45 µM)	–	–
CC(C)C[C@@H]1NC(=O)[C@H](CCCN)NC(=O)[C@H](C(C)C)NC(=O)[C@@H]2CCCN2C(=O)[C@@H](Cc2ccccc2)NC(=O)[C@H](CC(C)C)NC(=O)[C@H](CCCN)NC(=O)[C@H](C(C)C)NC(=O)[C@@H]2CCCN2C(=O)[C@@H](CCCNC(=N)N)NC1=O [Peptide 9] (cyclo(L[dF]PV[Orn]L[dR]PV[Orn]))	32 µg/mL (≈ 27.8 µM)	16 µg/mL (≈ 13.9 µM)	16 µg/mL (≈ 13.9 µM)	8 µg/mL (≈ 6.95 µM)	–	–	–	–
CC(C)C[C@@H]1NC(=O)[C@H](CCCN)NC(=O)[C@H](C(C)C)NC(=O)[C@@H]2CCCN2C(=O)[C@@H](CCCNC(=N)N)NC(=O)[C@H](CC(C)C)NC(=O)[C@H](CCCN)NC(=O)[C@H](C(C)C)NC(=O)[C@H](Cc2c[nH]c3ccccc23)NC(=O)[C@@H](Cc2ccccc2)NC1=O [Peptide 10] (cyclo(L[dF]WV[Orn]L[dR]PV[Orn]))	32 µg/mL (≈ 25.8 µM)	32 µg/mL (≈ 25.8 µM)	16 µg/mL (≈ 12.9 µM)	8 µg/mL (≈ 6.45 µM)	–	–	–	–
CC(C)C[C@@H]1NC(=O)[C@H](CCCN)NC(=O)[C@H](C(C)C)NC(=O)[C@H](Cc2c[nH]c3ccccc23)NC(=O)[C@@H](Cc2ccccc2)NC(=O)[C@H](CC(C)C)NC(=O)[C@H](CCCN)NC(=O)[C@H](C(C)C)NC(=O)[C@H](Cc2c[nH]c3ccccc23)NC(=O)[C@@H](CCCNC(=N)N)NC1=O [Peptide 11] (cyclo(L[dF]WV[Orn]L[dR]WV[Orn]))	32 µg/mL (≈ 24.1 µM)	16 µg/mL (≈ 12 µM)	16 µg/mL (≈ 12 µM)	8 µg/mL (≈ 6.02 µM)	–	–	–	–
CC(C)C[C@@H]1NC(=O)[C@H](CCCN)NC(=O)[C@H](C(C)(C)C)NC(=O)[C@@H]2CCCN2C(=O)[C@@H](Cc2ccccc2)NC(=O)[C@H](CC(C)C)NC(=O)[C@H](CCCN)NC(=O)[C@H](C(C)C)NC(=O)[C@@H]2CCCN2C(=O)[C@@H](Cc2ccccc2)NC1=O [Peptide 12] (cyclo(L[dF]P[Tle][Orn]L[dF]PV[Orn]))	128 µg/mL (≈ 111 µM)	128 µg/mL (≈ 111 µM)	32 µg/mL (≈ 27.7 µM)	8 µg/mL (≈ 6.92 µM)	–	–	–	–
CC(C)C[C@@H]1NC(=O)[C@H](CCCN)NC(=O)[C@H](C(C)C)NC(=O)[C@@H]2CCCN2C(=O)[C@@H](Cc2ccccc2)NC(=O)[C@H](CC(C)C)NC(=O)[C@H](CCCNC(=N)N)NC(=O)[C@H](C(C)C)NC(=O)[C@@H]2CCCN2C(=O)[C@@H](CCCNC(=N)N)NC1=O [Peptide 15] (cyclo(L[dF]PV[Orn]L[dR]PVR))	–	16 µg/mL (≈ 13.4 µM)	16 µg/mL (≈ 13.4 µM)	8 µg/mL (≈ 6.71 µM)	16.47 min	–	–	32 µg/mL (≈ 26.8 µM)
CC[C@@H]1NC(=O)[C@@H]2CCCN2C(=O)[C@@H](Cc2ccccc2)NC(=O)[C@H](CC(C)C)NC(=O)[C@H](CCCNC(=N)N)NC(=O)[C@H](C(C)C)NC(=O)[C@@H]2CCCN2C(=O)[C@@H](CCCNC(=N)N)NC(=O)[C@H](CC(C)C)NC(=O)[C@H](CCCN)NC1=O [Peptide 16] (cyclo([Abu][Orn]L[dR]PVRL[dF]P))	–	32 µg/mL (≈ 27.2 µM)	32 µg/mL (≈ 27.2 µM)	16 µg/mL (≈ 13.6 µM)	16.24 min	–	–	64 µg/mL (≈ 54.3 µM)
